The test system of data set [1] is MCF-7 cells. Nature of the data set: 53BP1 immunostaining in MCF-7 cells. The following applies: E2 10-100 nM, BP3 1-5 μM, PP 1-5 μM. In kind it is cell-based, human.
Data set [2] has as its system TFF1. Nature of the data set: RT-qPCR of estrogen-responsive gene TFF1 in T47D cells. In kind it is cell-based, human. The settings on record: T47D; for expression of TFF1 vs control: 5 μM. Here is the method: RT-qPCR: RNA from T47D cells, MCF-7 Cells or flash-frozen 4th mammary gland was isolated with TRIzol (Thermofisher Scientific #15596018) and Direct-zol RNA MiniPrep Plus (Zymo Research #R2072). cDNA was prepared with Protoscript II First Strand cDNA Synthesis Kit (New England Biolabs #E6560S) and qPCR for TFF1, progesterone receptor (PGR) and Amphiregulin (AREG) was performed on CFX96 Real-Time System thermocycler (Bio-Rad) using primers in Table 1.
On the technique in general: Quantitative PCR measures a nucleic acid by following its amplification.

For data set [3], the system named is parental 76N-tert cell line. Nature of the data set: S9.6 immunostaining (R-loops) in parental 76N-tert cells without ERα. In kind it is cell-based, human. The following applies: no ERα. The protocol: Generation of 76N-Tert-ESR1 cells: The 76N-Tert cell line, a human mammary epithelial cell line immortalized with expression of human telomerase reverse transcriptase (TERT) was provided (35). These cells were grown in F-media (250 mL DMEM (-pyruvate) (Gibco #11965-092), 250 mL Ham's F12 (Gibco #11765-054), 5% FBS, 250 ng/mL hydrocortisone (Sigma #H4001), 10 ng/mL human epidermal growth factor (Tonbo Biosciences #21-8356-U100), 8.6 ng/mL cholera toxin vibrio (Millipore Sigma #227035), 1 μg/mL human insulin solution, and 1× antibiotic-antimycotic and passaged every 2-3 days.
Immunostaining: Cells were grown in clearing media for 48 h and plated on 20 mm coverslip in 12 well plates with a density of 2×10^5 cells/well. After 24 h of growth, cells were treated with 10 nM E2, 1 or 5 μM BP3, and 1 or 5 μM PP with or without 1 μM fulvestrant. γH2AX/ERα: Cells were fixed in ice-cold methanol (100%) for 10 mins and quenched with 0.1 M Glycine for 15 mins. Cells were washed with 1×PBS, blocked in 2% BSA/PBS with 0.1% Triton-X 100 for 1 hr at room temperature (RT), incubated overnight with γH2AX antibody (Cell Signaling #9718 S) or ERα antibody (Santa Cruz Biotechnology #sc-8002) at 4° C. and 1 hour with secondary antibody. S9.6: Cells were fixed in ice-cold 100% methanol for 10 min at −20° C., permeabilized in 100% acetone for 1 min at RT, blocked for 30 min in saline sodium citrate pH 7 (SSC, 4×), 3% BSA, 0.1% Triton-X and incubated with S9.6 (Kerafast #ENH001) 2 hr at RT followed by 1 h with secondary antibody. If indicated, slides were treated with RNase H (NEB #M0297L) for 4 hr at 37° C. prior to incubation with primary antibody. Stained cells were mounted with Vectashield mounting medium containing DAPI (Vector Laboratories #H-1200). Slides were imaged at 60× (immersion oil) with Nikon A1 Spectral Confocal microscope. Analysis of γH2AX and S9.6 intensity per nucleus or foci per nucleus was calculated using Nikon analysis software, where DAPI was used as a mask for the nucleus.

In data set [4] the test system is mammary gland. Nature of the data set: Acute oral exposure of ovariectomized mice: nuclear γH2AX in mammary gland. In kind it is in vivo, mouse. The following applies: 4 days, E2 250, BP3 3,000, PP 10,000 μg/kg/day. From the text: Animal Treatment: Forty mature female mice (8 weeks old) BALB/c mice were purchased from Jackson Laboratory and housed in temperature-controlled facilities with a 12-hour alternating day/night light cycle and fed LabChow 5058 ad libitum. All procedures were in accordance with the national guidelines for the care and use of animals and approved by the University of Massachusetts Amherst's Institutional Animal Care and Use Committee.
The mice were ovariectomized before treatment. Briefly, each mouse was anaesthetized with a mix of isofluorance and oxygen. The flanks were shaved, sterilized with betadine and cleaned with alcohol. An incision was made to the skin on the right flank. The underlying muscle layer was nicked to reveal a small hole through which ovary was pulled out by grasping the periovarian fat. A Serrifin clamp was used to hold the ovary. After making sure the blood vessels were constricted to prevent […], the ovary was cut from the uterine horn. The periovarian fat was restored into the peritoneum. The peritoneum was closed with one or two stiches and the skin was closed with 9 mm wound clips. The procedure was repeated on the contralateral side. The mouse was monitored for a week post-procedure and wound clips were removed after 10 days. After 1 week of recovery, the mice began an acute oral treatment via pipette with one of three different compounds prepared in tocopherol-stripped corn oil for 4 days. Each mouse was administered 1 μL of oil per gram of body weight to deliver 250 μg/kg/d E2, 3000 μg/kg/d BP3 or 10000 μg/kg/d PP or vehicle control. […]
Immunostaining of mouse mammary gland: Freshly cut […] paraffin-embedded sections were deparaffinized/rehydrated with 100% xylenes 3 times for 5 min each, 2 times with 100% ethanol for 5 min each, 95% ethanol for 3 min and 70% ethanol for 3 min. […] Analysis of S9.6 intensity per nucleus or foci per nucleus were calculated using Nikon analysis software, where DAPI was used as a mask for the nucleus. […] Positive cells were counted using ImageJ software. 1200 cells were counted to determine percent Ki67 positive.

Molecules are shown by their SMILES. “Also recorded” adds a separate entry of the source.

`C[C@]12CC[C@@H]3c4ccc(O)cc4CC[C@H]3[C@@H]1CC[C@@H]2O` [E2, 17β-estradiol, reference compound]: the 53BP1 nuclear intensity result in data set [1] is given as “dose-dependent increases in 53BP1 nuclear intensity”. The “increase in expression of TFF1” value in data set [2] (10 nM) is given as 13.1 fold. Also, in data set [3], the “nuclear S9.6 staining” value is “low nuclear S9.6 staining”. Also, the “nuclear γH2AX intensity in the mammary gland vs vehicle control” value (shortened to “nuclear γH2AX intensity … vs vehicle control”) in data set [4] is “significantly higher”.

Regarding `COc1ccc(C(=O)c2ccccc2)c(O)c1` [BP3, 2-Hydroxy-4-methoxybenzophenone], the 53BP1 nuclear intensity result in data set [1] is given as “dose-dependent increase”. Also, in data set [2], the “expression of TFF1 vs control” value is listed as “did not differ from the control”. Also, the “nuclear S9.6 staining” value in data set [3] is “low nuclear S9.6 staining”. In addition, in data set [4], the “nuclear γH2AX intensity … vs vehicle control” value was “significantly higher; also recorded: increases”.

In the case of `CCCOC(=O)c1ccc(O)cc1` [PP, propyl parahydroxybenzoate], in data set [1], the 53BP1 nuclear intensity entry was “dose-dependent increases in 53BP1 nuclear intensity”. In addition, the “expression of TFF1 vs control” value in data set [2] is recorded as “did not differ from the control”. Moreover, the “nuclear S9.6 staining” value in data set [3] is listed as “low nuclear S9.6 staining”. Also, the “nuclear γH2AX intensity … vs vehicle control” value in data set [4] is reported as “increases”.

The values are drawn from patent publication US12590950B2, “Methods for predicting ER-mediated DNA damage” (UNIVERSITY OF MASSACHUSETTS, priority 2019, dated 2026).
